Legend:
MCF-7 cells = test: Flow cytometry of DPP-3 in MCF-7 cells; type: cell-based, human; conditions: 5 μM DPP-3, 5 min, flow cytometry
Procedure: (§1) Cells were plated on a 10 cm dish with 10 mL of DMEM/High Glucose (10% FBS, 1% P/S, L-Glutamine, Sodium pyruvate) 36-48 hours prior to the day of experiment and maintained at 37° C., 5% CO2 so as to obtain 80-90% confluency. Cells were washed with DPBS and trypsinized with 1 mL 0.05% Trypsin. 5 mL of DMEM/High Glucose (10% FBS, L-Glutamine, Sodium pyruvate) was added and cells were spun down at 1200 rpm for 3 min. Media was discarded and cells were resuspended in 5 mL of Live Cell Imaging Solution and again spun down at 1200 rpm for 3 min. The cells pellets obtained were resuspended in 3-5 mL of Live Cell Imaging Solution and divided into 500 μL aliquots. The aliquots were treated with either 0.2% DMSO carrier or 1 μM of PalmB/ML348 or 1 μM/5 μM of ML349 inhibitor. After 30 min of incubation at room temperature, 1 μL of 2.5 mM DPP-3 in DMSO was added to each aliquot for a final concentration of 5 μM, and the solutions were mixed. After 5 min incubation at room temperature, fluorescence signal in FITC channel was measured for 10000 cells (5000 for HeLa experiments) on a LSR-Fortessa 4-15 HTS (BD digital instrument, 488 nm laser with 530/30 nm filter for FITC; BD, Franklin Lakes, N.J., United States of America). For analyzing DPP2 in HEK293T cells, the aliquots were treated with either 0.2% DMSO carrier or 2 μM of PalmB, 5 or 20 μM of ML348/ML349 and then analyzed by the protocol as mentioned above. Data was analyzed by FlowJo software version 10.0.8. For comparison of A431 starved versus non-starved, parallel 10 cm dishes of A431 cells were plated in 10 mL of DMEM (high glucose, 10% FBS, 1% P/S), and grown for 36 h. The growth media was removed, and replaced by 10 mL of either DMEM (High glucose) with 10% FBS to maintain “growth” conditions, or DMEM (High glucose) without FBS respectively for “starvation” conditions, and incubated for 14 h. After trypsinization, both plates were treated with 5 mL of DMEM (high glucose) for spinning the cells down, and further processing and analysis were performed as described above by flow cytometry.

[1] = Water solubility of probes (stated in words); type: physicochemical
APT1 = target: T1, APT1 (Homo sapiens, UniProt O75608); test: In vitro kinetic assay and emission spectra of DPP-1, DPP-2, DPP-3 with purified APT1 (with detergent); type: biochemical
T1 construct: His-tag; made in house; host or cells: E. coli ROSETTA DE3
Procedure: 50 μL of 7.5 μM DPP1-3 in HEPES (20 mM, pH=7.4, 150 mM NaCl, 0.1% Triton X-100) were added to a 384-well black flat bottom plate (Corning Life Sciences, Corning, N.Y., United States of America) and placed in an Infinite M200 Pro (Tecan, Mannedorf, Switzerland) plate reader at 37° C. for 5 min to warm. 25 μL of either 4-(2-hydroxyethyl)-1-piperazineethanesulfonic acid (HEPES) buffer alone or HEPES buffer containing 150 nM APT1 or APT2, was added using a multi-channel pipette, resulting in a final concentration of 5 μM DPP1-3 and 50 nM APT1 or APT2. Fluorescence intensities (λex 490/9 nm, λem 545/20 nm, Gain 70, No. of flashes 25, Integration time 100 μs and Z-position 20000 μm) were measured at 30 second (s) time intervals for 20 min. At the end of 20 min kinetic run, emission spectra were obtained (λex 485 nm, Aem510-700 nm, Gain 100, No. of flashes 25, Integration time 100 μs and Z-position 20,000 μm).

HeLa cells = test: Flow cytometry of DPP-3 in HeLa cells; type: cell-based, human; conditions: 5 μM DPP-3, 5 min, flow cytometry
Procedure: as §1

HEK293T cells = test: Live cell fluorescence imaging and flow cytometry of DPP-2 and DPP-3 in HEK293T cells; type: cell-based, human; conditions: 1 μM DPP-2 for 15 min, microscopy or flow cytometry
Procedure: HEK293T (650,000 cells per dish) cells were plated with 1.5 mL of Dulbecco's Modified Eagle Medium (DMEM) (High Glucose, 10% fetal bovine serum (FBS)) in a 35 mm glass bottom dish (D35-10-1.5-N; Cellvis, Mountain View, Calif., United States of America) 24 hrs prior to imaging. 30 min before the addition of the DPP probe, the cell culture media was removed and cells were washed with 1 mL of Delbecco's phosphate-buffered saline (DPBS). The media was then replaced with 1 mL of DMEM containing 1 μM Hoechst 33342 and either 0.1% DMSO carrier as a control, 1 or 2 μM Palm B, 0.1, 1.0, or 5 μM ML348, and incubated for 30 min at 37° C. and 5% CO2. The media was removed, the cells were washed with 1 mL of Live Cell Imaging Solution (Thermo Fisher Scientific, Waltham, Mass., United States of America), and 1 mL of 1 μM DPP-2 or DPP-3 in Live Cell Imaging Solution was added to each plate. For ML348 0.1, 1.0, or 5 μM was added along with DPP-2 or DPP-3. After incubation for 15 min at 37° C. and 5% CO2, images were obtained on an inverted epi-fluorescence microscope (Olympus IX83; Olympus Corporation, Tokyo, Japan) attached with EMCCD camera (Photometrics EVOLVE™ Delta; Photometrics, Tucson, Ariz., United States of America) with 40× oil objective (N/A 1.3) for DPP-2 (excitation filter 500/20, dichroic chroma 89007, emission filter 535/30, exposure time 200 ms, EM gain 25), Hoechst 33342: (excitation filter 402/15, emission filter 455/50, dichroic chroma 89013, exposure time 30 ms, EM gain 25), and brightfield (exposure time 5 ms, EM gain 5), and for DPP-3 (exposure time 500 ms, EM gain 150), Hoechst 33342: (exposure time 30 ms, EM gain 25), and brightfield (exposure time 20 ms, EM gain 5). Analyses were performed in ImageJ. For data analysis, the average fluorescence intensity per image in each experimental condition was obtained by selecting regions of interest (ROIs) in the brightfield image. For display, the data were normalized to the average fluorescence intensity of the control conditions. Each experiment was repeated at least three separate times with identical results.
Cells were plated on a 10 cm dish with 10 mL of DMEM/High Glucose (10% FBS, 1% P/S, L-Glutamine, Sodium pyruvate) 36-48 hours prior to the day of experiment and maintained at 37° C., 5% CO2 so as to obtain 80-90% confluency. Cells were washed with DPBS and trypsinized with 1 mL 0.05% Trypsin. 5 mL of DMEM/High Glucose (10% FBS, L-Glutamine, Sodium pyruvate) was added and cells were spun down at 1200 rpm for 3 min. Media was discarded and cells were resuspended in 5 mL of Live Cell Imaging Solution and again spun down at 1200 rpm for 3 min. The cells pellets obtained were resuspended in 3-5 mL of Live Cell Imaging Solution and divided into 500 μL aliquots. The aliquots were treated with either 0.2% DMSO carrier or 1 μM of PalmB/ML348 or 1 μM/5 μM of ML349 inhibitor. After 30 min of incubation at room temperature, 1 μL of 2.5 mM DPP-3 in DMSO was added to each aliquot for a final concentration of 5 μM, and the solutions were mixed. After 5 min incubation at room temperature, fluorescence signal in FITC channel was measured for 10000 cells (5000 for HeLa experiments) on a LSR-Fortessa 4-15 HTS (BD digital instrument, 488 nm laser with 530/30 nm filter for FITC; BD, Franklin Lakes, N.J., United States of America). For analyzing DPP2 in HEK293T cells, the aliquots were treated with either 0.2% DMSO carrier or 2 μM of PalmB, 5 or 20 μM of ML348/ML349 and then analyzed by the protocol as mentioned above. Data was analyzed by FlowJo software version 10.0.8. For comparison of A431 starved versus non-starved, parallel 10 cm dishes of A431 cells were plated in 10 mL of DMEM (high glucose, 10% FBS, 1% P/S), and grown for 36 h. The growth media was removed, and replaced by 10 mL of either DMEM (High glucose) with 10% FBS to maintain “growth” conditions, or DMEM (High glucose) without FBS respectively for “starvation” conditions, and incubated for 14 h. […]

MDA-MB-231 cells = test: Flow cytometry of DPP-3 in MDA-MB-231 cells; type: cell-based, human; conditions: MDA-MB-231; 5 μM DPP-3, 5 min, flow cytometry
Procedure: as §1

T1 sequence (O75608 whole entry): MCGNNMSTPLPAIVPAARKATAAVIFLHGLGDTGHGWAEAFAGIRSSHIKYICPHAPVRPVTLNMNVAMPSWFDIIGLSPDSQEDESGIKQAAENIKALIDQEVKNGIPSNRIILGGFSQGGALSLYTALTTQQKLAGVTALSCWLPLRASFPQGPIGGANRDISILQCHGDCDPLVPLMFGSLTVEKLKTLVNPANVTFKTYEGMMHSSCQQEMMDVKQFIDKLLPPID

water solubility [1]: water soluble
enhancement in fluorescence signal (APT1; 5 μM probe, 50 nM APT1, 20 min): 400 fold
selectivity for APT1 over APT2 (APT1; in vitro, purified APT1 vs APT2): modest selectivity for APT1 over APT2
performance as substrate / reaction kinetics (APT1; purified APT1): striking reaction kinetics
SMILES: CCCCCCCC(=O)SC[C@@H](C(=O)N[C@@H](CCCCN)C(=O)OC)N(C)C(=O)Oc1ccc2c(c1)Oc1cc(N(C)C)ccc1C21OC(=O)c2ccccc21 (some centres unmarked) [DPP-3]
detection of endogenous depalmitoylase activities by probe (MCF-7 cells): can detect endogenous depalmitoylase activities
detection of endogenous depalmitoylase activities by probe (HeLa cells): can detect endogenous depalmitoylase activities
probe fluorescent signal in live cells (HEK293T cells): functions in live cells
detection of endogenous depalmitoylase activities by probe (MDA-MB-231 cells): can detect endogenous depalmitoylase activities

From patent US10413583B2, “Synthetic substrates for enzymes that catalyze reactions of modified cysteines and related methods” (The University of Chicago, priority 2016, dated 2019)
